# Experimental data published in patent publication US20250368647A1, “NITROGEN CONTAINING CONDENSED 2,3-DIHYDROQUINAZOLINONE COMPOUNDS AS NAV1.8 INHIBITORS” (GLAXOSMITHKLINE INTELLECTUAL PROPERTY DEVELOPMENT LIMITED, priority 2022, published 2025).
# Structures can show the parent of a compound that is named as a salt.
# Target: human Nav1.8 (Homo sapiens (Human), UniProt Q9Y5Y9)
# Assay: QPatch 48 HTX voltage-clamp electrophysiology, half inactivation state (V1/2) protocol, HEK293-Nav1.8 cells
# Type: cell-based
# Settings: HEK293 cells expressing human Nav1.8, human Navβ1 and human TREK1, P2 current
# Method in brief: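 HEK293 cells co-expressing Navβ1 and TREK1 were voltage-clamped from −100 mV: a 20 ms step to 0 mV, 8 s inactivation at −46 mV, 20 ms at −100 mV, then a 20 ms P2 test step to 0 mV, repeated every 15 s. P2 current was normalized to vehicle and full block, corrected for run-down, and Hill-fitted (4–6 concentrations) for IC50.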
# Chain of human Nav1.8 (Q9Y5Y9 whole entry): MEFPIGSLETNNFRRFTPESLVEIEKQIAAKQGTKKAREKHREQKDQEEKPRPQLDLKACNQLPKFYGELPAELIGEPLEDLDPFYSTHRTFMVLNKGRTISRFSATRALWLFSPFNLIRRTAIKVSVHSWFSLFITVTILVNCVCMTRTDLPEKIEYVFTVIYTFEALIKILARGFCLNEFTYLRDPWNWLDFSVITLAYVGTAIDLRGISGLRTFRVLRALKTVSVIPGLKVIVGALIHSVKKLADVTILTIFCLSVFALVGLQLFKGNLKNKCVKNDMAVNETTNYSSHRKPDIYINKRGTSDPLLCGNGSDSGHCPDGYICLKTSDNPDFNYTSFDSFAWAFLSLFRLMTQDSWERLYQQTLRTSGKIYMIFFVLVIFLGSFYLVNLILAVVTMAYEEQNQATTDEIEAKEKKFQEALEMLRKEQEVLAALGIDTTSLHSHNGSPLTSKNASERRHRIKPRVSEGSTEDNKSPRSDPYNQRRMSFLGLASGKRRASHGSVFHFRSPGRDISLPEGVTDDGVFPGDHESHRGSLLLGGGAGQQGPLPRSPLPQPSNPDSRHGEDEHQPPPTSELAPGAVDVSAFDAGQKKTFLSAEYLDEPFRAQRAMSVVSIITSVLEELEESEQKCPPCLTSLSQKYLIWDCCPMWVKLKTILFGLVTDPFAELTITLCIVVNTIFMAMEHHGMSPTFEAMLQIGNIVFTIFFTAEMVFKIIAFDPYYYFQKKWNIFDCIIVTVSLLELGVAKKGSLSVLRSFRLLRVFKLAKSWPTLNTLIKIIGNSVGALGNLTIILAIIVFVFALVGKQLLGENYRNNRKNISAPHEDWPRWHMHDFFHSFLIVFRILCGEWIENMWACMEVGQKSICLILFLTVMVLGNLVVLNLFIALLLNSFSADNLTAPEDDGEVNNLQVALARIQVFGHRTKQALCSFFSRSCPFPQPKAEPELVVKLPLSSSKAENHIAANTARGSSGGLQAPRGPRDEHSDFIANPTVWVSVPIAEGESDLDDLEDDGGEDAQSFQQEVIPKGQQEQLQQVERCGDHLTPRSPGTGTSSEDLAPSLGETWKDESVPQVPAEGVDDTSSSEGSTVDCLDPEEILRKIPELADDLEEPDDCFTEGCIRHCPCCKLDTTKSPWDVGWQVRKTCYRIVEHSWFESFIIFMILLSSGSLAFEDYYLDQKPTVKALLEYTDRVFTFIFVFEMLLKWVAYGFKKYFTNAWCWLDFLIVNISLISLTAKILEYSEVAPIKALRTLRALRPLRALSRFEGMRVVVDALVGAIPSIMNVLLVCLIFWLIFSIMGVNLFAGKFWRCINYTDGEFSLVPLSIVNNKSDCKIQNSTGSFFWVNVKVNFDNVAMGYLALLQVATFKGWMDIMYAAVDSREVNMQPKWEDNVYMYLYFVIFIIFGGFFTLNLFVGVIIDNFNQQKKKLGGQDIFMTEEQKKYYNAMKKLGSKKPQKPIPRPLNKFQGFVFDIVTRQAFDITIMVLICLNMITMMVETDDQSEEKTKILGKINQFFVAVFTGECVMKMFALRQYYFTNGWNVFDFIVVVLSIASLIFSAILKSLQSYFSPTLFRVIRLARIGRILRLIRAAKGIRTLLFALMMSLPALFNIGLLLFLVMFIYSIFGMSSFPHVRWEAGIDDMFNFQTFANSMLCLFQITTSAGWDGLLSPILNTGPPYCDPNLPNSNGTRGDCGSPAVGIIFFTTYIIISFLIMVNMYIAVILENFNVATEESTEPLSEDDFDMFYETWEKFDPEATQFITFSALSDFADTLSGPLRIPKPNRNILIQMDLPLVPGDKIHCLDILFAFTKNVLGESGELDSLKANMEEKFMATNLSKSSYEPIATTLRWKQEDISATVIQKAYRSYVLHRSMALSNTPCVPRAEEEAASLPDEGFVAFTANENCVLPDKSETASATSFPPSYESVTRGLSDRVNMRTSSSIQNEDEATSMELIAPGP
# Chain of human Nav1.8 (Q07699 19-218 partner): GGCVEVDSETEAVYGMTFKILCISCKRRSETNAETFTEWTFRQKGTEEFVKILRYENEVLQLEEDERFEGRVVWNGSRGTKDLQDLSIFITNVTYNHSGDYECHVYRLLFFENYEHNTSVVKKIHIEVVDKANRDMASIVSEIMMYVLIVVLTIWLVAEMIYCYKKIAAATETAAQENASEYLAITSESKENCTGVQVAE
row,"Nav1.8, pIC50",Compound
1,7.5,"O=C1c2cc(OC(F)(F)F)ccc2N2CN1c1ccc(=O)[nH]c1NCCCc1cc(F)ccc12 [Example 31, 8-Fluoro-2-(trifluoromethoxy)-10,11,12,13-tetrahydro-19H-5,18-methanodibenzo[f,i]pyrido[2,3,-b][1,4,8]triazacyclotridecine-15,19(14H)-dione]"
2,7.5,"O=C1c2c(ccc(C(F)(F)F)c2F)N2CN1c1ccc(=O)[nH]c1NCCCc1cc(F)ccc12 [Example 33, 1,8-Difluoro-2-(trifluoromethyl)-10,11,12,13-tetrahydro-19H-5,18-methanodibenzo[f,i]pyrido[2,3,-b][1,4,8]triazacyclotridecine-15,19(14H)-dione]"
3,7.2,"O=C1c2cc(Cl)cnc2N2CN1c1ccc(=O)[nH]c1CCCCCc1cc(F)ccc12 [Example 20, 2^6-Chloro-3^4-fluoro-1^1,1^2,2^1,2^2,2^3,2^4-hexahydro-2(3,1)-pyrido[2,3-d]pyrimidina-1(5,6)-pyridina-3(1,2)-benzenacyclooctaphane-1^2,2^4-dione]"
4,6.8,"Cl.O=C1c2cc(F)c(F)cc2N2CN1c1ccc(=O)[nH]c1CCCNCc1c2ccc(F)c1Cl [Example 109, 3^3-Chloro-2^6,2^7,3^4-trifluoro-1^1,1^2,2^1,2^2,2^3,2^4-hexahydro-5-aza-2(3,1)-quinazolina-1(5,6)-pyridina-3(1,2)-benzenacyclooctaphane-1^2,2^4-dione hydrochloride]"
5,6.5,"O=C1c2cc(C(F)(F)F)ccc2N2CN1c1ccc(=O)[nH]c1CCCCCCc1cc(F)ccc12 [Example 10, 3^4-Fluoro-2^6-(trifluoromethyl)-1^1,1^2,2^1,2^2,2^3,2^4-hexahydro-2(3,1)-quinazolina-1(5,6)-pyridina-3(1,2)-benzenacyclononaphane-1^2,2^4-dione]"
6,6.2,"O=C1c2cc(C(F)(F)F)ccc2N2CN1c1ccc(=O)[nH]c1CCCCNc1cc(F)ccc12 [Example 25, 3^4-Fluoro-2^6-(trifluoromethyl)-1^1,1^2,2^1,2^2,2^3,2^4-hexahydro-4-aza-2(3,1)-quinazolina-1(5,6)-pyridina-3(1,2)-benzenacyclooctaphan-1^2,2^4-dione]"
7,7.1,"O=C1c2cc(C(F)(F)F)ccc2N2CN1c1cc(Cl)c(=O)[nH]c1NCCCc1cc(F)ccc12 [Example 29, 16-Chloro-8-fluoro-2-(trifluoromethyl)-10,11,12,13-tetrahydro-19H-5,18-methanodibenzo[f,i]pyrido[2,3,-b][1,4,8]triazacyclotridecine-15,19(14H)-dione]"
8,6.1,"CC1Cc2[nH]c(=O)ccc2N2CN(c3ccc(F)cc3CN1)c1cc(C(F)(F)F)c(F)cc1C2=O (racemic) [Example 123, 2,8-Difluoro-12-methyl-3-(trifluoromethyl)-10,11,12,13-tetrahydro-19H-5,18-methanodibenzo-[c,f]pyrido[3,2-j][1,5,9]triazacyclotridecine-15,19(14H)-dione hydrochloride]"
9,7.7,"Cl.N#Cc1cc2c(cc1F)C(=O)N1CN2c2ccc(OC(F)(F)F)cc2CNCCc2[nH]c(=O)ccc21 [Example 88, 2-Fluoro-15,19-dioxo-8-(trifluoromethoxy)-10,11,12,13,14,15-hexahydro-19H-5,18-methanodibenzo[c,f]pyrido[3,2-j][1,5,9]triazacyclotridecine-3-carbonitrile hydrochloride]"
10,8.8,"Cl.O=C1c2cc(Cl)c(C(F)(F)F)cc2N2CN1c1ccc(=O)[nH]c1CCNCc1c2ccc(F)c1F [Example 60, 2-Chloro-8,9-difluoro-3-(trifluoromethyl)-10,11,12,13-tetrahydro-19H-5,18-methanodibenzo[c,f]pyrido[3,2-j][1,5,9]triazacyclotridecine-15,19(14H)-dione hydrochloride]"
11,5.7,"O=C1c2cc(C(F)(F)F)ccc2N2CN1c1ccc(=O)[nH]c1NCCOc1cc(F)ccc12 [Example 15, 8-Fluoro-2-(trifluoromethyl)-12,13-dihydro-11H,19H-5,18-methanodibenzo[i,j]pyrido[2,3-e][1]oxa[4,7,11]triazacyclotridecine-15,19(14H)-dione]"
12,7.5,"N#Cc1cc2c(cc1F)C(=O)N1CN2c2ccc(F)cc2CCCNc2[nH]c(=O)ccc21 [Example 95, 2,8-Difluoro-15,19-dioxo-10,11,12,13,14,15-hexahydro-19H-5,18-methanodibenzo[f,i]pyrido-[2,3-b][1,4,8]triazacyclotridecine-3-carbonitrile]"
13,7.4,"Cl.O=C1c2cc(F)c(C(F)(F)F)cc2N2CN1c1ccc(=O)[nH]c1NCCNCc1c2ccc(F)c1F [Example 135, 2^6,3^3,3^4-Trifluoro-2^7-(trifluoromethyl)-1^1,1^2,2^1,2^2,2^3,2^4-hexahydro-5,8-diaza-2(3,1)-quinazolina-1(5,6)-pyridina-3(1,2)-benzenacyclooctaphane-1^2,2^4-dione hydrochloride]"
14,8.1,"Cl.N#Cc1cc2c(cc1F)C(=O)N1CN2c2ccc(OC(F)(F)F)c(F)c2CNCCc2[nH]c(=O)ccc21 [Example 89, 2,9-Difluoro-15,19-dioxo-8-(trifluoromethoxy)-10,11,12,13,14,15-hexahydro-19H-5,18-methanodibenzo[c,f]pyrido[3,2-j][1,5,9]triazacyclotridecine-3-carbonitrile hydrochloride]"
15,6.1,"COc1c(F)ccc2c1CNCCc1[nH]c(=O)ccc1N1CN2c2cc(F)c(F)cc2C1=O.O=CO [Example 70, 2,3,8-Trifluoro-9-methoxy-10,11,12,13-tetrahydro-19H-5,18-methanodibenzo-[c,f]pyrido[3,2-j][1,5,9]triazacyclotridecine-15,19(14H)-dione, Formic acid salt]"
16,8.1,"O=C1c2cc(C(F)(F)F)ccc2N2CN1c1ccc(=O)[nH]c1CCCCCc1cc(F)ccc12 [Example 7, 3^4-Fluoro-2^6-(trifluoromethyl)-1^1,1^2,2^1,2^2,2^3,2^4-hexahydro-2(3,1)-quinazolina-1(5,6)-pyridina-3(1,2)-benzenacyclooctaphane-1^2,2^4-dione]"
17,7.0,"O=C1c2cc(C(F)(F)F)ccc2N2CN1c1ccc(=O)[nH]c1NCCCc1cc(F)c(F)cc12 [Example 39, 7,8-Difluoro-2-(trifluoromethyl)-10,11,12,13-tetrahydro-19H-5,18-methanodibenzo[f,i]dipyrido[2,3,-b][1,4,8]triazacyclotridecine-15,19(14H)-dione]"

# Same assay, conditions: HEK293 cells expressing human Nav1.8, human Navβ1 and human TREK1, P2 current, read-out: Nav1.8, pIC50 (converted)
row,IC50,Compound
1,1580 nM,"CC1Cc2[nH]c(=O)ccc2N2CN(c3ccc(F)cc3CN1)c1cc(C(F)(F)F)c(F)cc1C2=O (single isomer, unassigned; isomer 1) [Example 124, 2,8-difluoro-12-methyl-3-(trifluoromethyl)-10,11,12,13-tetrahydro-19H-5,18-methanodibenzo[c,f]pyrido[3,2-j][1,5,9]triazacyclotridecine-15,19(14H)-dione, Isomer 1]"
2,31.6 nM,"C[C@H]1NCCc2[nH]c(=O)ccc2N2CN(c3cc(C(F)(F)F)c(F)cc3C2=O)c2ccc(F)cc21 [Example 118, (10R)-2,8-difluoro-10-methyl-3-(trifluoromethyl)-10,11,12,13-tetrahydro-19H-5,18-methanodibenzo[c,f]pyrido[3,2-j][1,5,9]triazacyclotridecine-11(10H)-dione]"
